From patent US10076652B2, “Method for ultrasound-mediated delivery system to monitor molecular penetration” (CHANG GUNG UNIVERSITY, priority 2015, dated 2018)

Experiment: Molecular penetration into the brain after focused ultrasound (FUS) induced BBB opening
Conditions: in vivo
Description: First, there are three testing substances, and their molecular size spreading from 1 to nearly 150 kDa are employed in second procedure. Three substances are Gd-DTPA, Evans blue, and Bevacizumab.
FIGS. 10A and 10B are about that selected the UEI ranging of 0.65 and 1.25 for testing, and under testing the center frequency of only 0.4 MHz is employed. FIG. 10A illustrates the measured molecular penetration (molecule 1-3) of different exposure conditions (UEI set to 0, 0.65, and 1.25). FIG. 10B illustrates the measured molecular penetration (molecule 1-3) of different molecular ranges (UEI set to 0, 0.65, and 1.25). These measurement results will be compared with the final predict results.
The molecule 1 has the highest penetration because of its small molecular size (1 kDa; the predicted concentration range is 1.7 to 6.2 μM during UEI ranging of 0.65-1.25). […]
Integrating of the UEI and the UII by above uniform and calibrated method steps, in this embodiment, it is possible to examine the three molecular penetrations reflecting to the four imaging indexes with different UEIs. Another experiment is conducted, the three molecular penetrations was measured (shown in FIG. 10), and comparing to the quantified predict results of the UEI. The correlation of UEI is evaluated under the UII.

Compound | predicted concentration range (molecular penetration) [µM]
Cc1cc(-c2ccc(/N=N/c3ccc4c(S(=O)(=O)O)cc(S(=O)(=O)O)c(N)c4c3O)c(C)c2)ccc1/N=N/c1ccc2c(S(=O)(=O)O)cc(S(=O)(=O)O)c(N)c2c1O [molecule 2, Evans blue] | 0.7 to 3.1
Bevacizumab [molecule 3] | 0.02 to 2.1
